Conditions in all cases: in vivo
Series [1] addresses P-glycoprotein 1 and 3 (MDR1a/MDR1b) (Mus musculus, UniProt P21447+P06795). The series is described as follows: (§1) TP_TRANSPORTER: increase in testes concentration in mdr1a/1b(-/-) mouse. It is filed as functional, organism-based, Testis.
Series [2] deals with T1, ATP-dependent translocase ABCB1 (Mus musculus, UniProt P21447). Nature of the series: TP_TRANSPORTER: increase in brain concentration in mdr1a/1b(-/-) mouse. It counts as functional, organism-based.
For series [3], the target named is T1, ATP-dependent translocase ABCB1. Described as §1. It counts as functional, organism-based, Testis.

T1 sequence (P21447 whole entry): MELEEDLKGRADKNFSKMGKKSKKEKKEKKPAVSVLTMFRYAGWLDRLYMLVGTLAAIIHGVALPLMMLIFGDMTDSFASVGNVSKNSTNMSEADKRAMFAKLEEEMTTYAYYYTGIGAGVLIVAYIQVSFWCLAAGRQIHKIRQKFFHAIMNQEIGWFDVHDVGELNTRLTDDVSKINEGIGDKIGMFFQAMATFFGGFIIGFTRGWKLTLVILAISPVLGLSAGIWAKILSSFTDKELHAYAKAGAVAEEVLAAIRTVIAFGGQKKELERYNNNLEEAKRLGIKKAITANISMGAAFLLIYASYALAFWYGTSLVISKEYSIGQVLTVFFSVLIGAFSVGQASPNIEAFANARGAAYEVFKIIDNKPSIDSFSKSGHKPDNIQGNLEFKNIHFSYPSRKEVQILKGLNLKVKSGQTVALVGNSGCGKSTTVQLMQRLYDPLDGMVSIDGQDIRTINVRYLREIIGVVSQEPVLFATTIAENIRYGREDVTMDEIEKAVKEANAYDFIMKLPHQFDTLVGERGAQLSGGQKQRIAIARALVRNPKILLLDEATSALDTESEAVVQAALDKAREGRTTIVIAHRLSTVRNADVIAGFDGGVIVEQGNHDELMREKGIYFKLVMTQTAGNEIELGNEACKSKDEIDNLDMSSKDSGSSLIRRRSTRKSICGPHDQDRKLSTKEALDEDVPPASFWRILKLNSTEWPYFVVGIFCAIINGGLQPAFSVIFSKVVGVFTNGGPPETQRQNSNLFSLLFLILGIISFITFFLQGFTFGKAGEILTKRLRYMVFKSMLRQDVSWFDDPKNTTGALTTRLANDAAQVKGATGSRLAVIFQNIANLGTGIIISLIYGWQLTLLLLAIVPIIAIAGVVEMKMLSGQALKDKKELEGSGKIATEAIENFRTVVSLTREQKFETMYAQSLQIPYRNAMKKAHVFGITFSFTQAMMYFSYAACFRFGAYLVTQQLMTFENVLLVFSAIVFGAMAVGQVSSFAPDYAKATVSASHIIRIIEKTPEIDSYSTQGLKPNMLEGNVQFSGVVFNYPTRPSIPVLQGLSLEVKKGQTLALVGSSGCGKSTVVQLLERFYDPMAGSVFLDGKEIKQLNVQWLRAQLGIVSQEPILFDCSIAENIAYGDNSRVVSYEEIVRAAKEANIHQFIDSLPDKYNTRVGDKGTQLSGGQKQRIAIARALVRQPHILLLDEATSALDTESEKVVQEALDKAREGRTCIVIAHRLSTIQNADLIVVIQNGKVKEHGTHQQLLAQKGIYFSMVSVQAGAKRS

With `C[C@]12CCC(=O)C=C1CC[C@@H]1[C@@H]2[C@@H](O)C[C@]2(C=O)[C@@H](C(=O)CO)CC[C@@H]12` [ALDOSTERONE], in series [1], the Activity result is “substrate [+]”.
As to `C[C@]12CCC(=O)C=C1CC[C@@H]1[C@@H]2[C@@H](O)C[C@@]2(C)[C@H]1CC[C@]2(O)C(=O)CO` [HYDROCORTISONE], in series [1], the Activity result is “substrate [+]”.
For `CC(=O)[C@H]1CC[C@H]2[C@@H]3CCC4=CC(=O)CC[C@]4(C)[C@H]3CC[C@]12C` [PROGESTERONE], the Activity entry in series [2] and in series [3] was “substrate [+]” each time.

The values above are taken from ChEMBL document CHEMBL2074022, “Penetration of endogenous steroid hormones corticosterone, cortisol, aldosterone and progesterone into the brain is enhanced in mice deficient for both mdr1a and mdr1b P-glycoproteins” (J Neuroendocrinol, 2002).
